Results reported in ChEMBL document CHEMBL1201862, “PubChem BioAssay data set” (2004).
The source made the active and inactive calls.

Tests used:
[1] = target: T1, Tyrosine-protein phosphatase non-receptor type 22 (Homo sapiens, UniProt Q9Y2R2); assay: PTPN22 phosphatase inhibition, dose response, selectivity assay for STEP inhibitor project, biochemical (AID 624241); assay type: functional
T1 sequence (Q9Y2R2 whole entry): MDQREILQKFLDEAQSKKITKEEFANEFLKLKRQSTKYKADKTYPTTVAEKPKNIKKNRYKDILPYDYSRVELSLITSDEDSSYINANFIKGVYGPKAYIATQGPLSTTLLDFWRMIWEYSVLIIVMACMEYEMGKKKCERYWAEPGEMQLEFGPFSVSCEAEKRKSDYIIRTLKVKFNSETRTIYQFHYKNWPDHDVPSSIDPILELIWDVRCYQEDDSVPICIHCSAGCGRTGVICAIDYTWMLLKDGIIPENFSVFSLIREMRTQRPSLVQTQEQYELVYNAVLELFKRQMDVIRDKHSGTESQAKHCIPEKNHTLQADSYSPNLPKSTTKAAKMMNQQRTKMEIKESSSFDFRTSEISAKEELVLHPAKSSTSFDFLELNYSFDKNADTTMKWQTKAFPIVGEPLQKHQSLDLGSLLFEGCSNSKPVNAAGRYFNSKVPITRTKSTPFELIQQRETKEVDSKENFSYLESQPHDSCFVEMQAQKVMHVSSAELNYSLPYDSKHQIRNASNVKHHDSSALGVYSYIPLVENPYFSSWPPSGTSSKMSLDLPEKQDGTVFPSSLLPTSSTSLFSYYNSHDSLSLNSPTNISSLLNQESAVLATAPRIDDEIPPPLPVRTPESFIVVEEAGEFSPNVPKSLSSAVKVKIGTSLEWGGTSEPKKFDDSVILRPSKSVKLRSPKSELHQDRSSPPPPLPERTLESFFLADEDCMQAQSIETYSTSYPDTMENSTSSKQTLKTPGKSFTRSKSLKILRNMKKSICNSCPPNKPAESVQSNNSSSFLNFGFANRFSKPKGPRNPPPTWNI

[2] = target: Tyrosine-protein phosphatase non-receptor type 5 (Homo sapiens, UniProt P54829); assay: STEP phosphatase inhibitors, confirmation, biochemical, fluorescence intensity, uHTS hits (AID 602372); assay type: functional; details: read-out: IC50_Mean
[3] = target: T2, Small ubiquitin-related modifier 1 (Homo sapiens, UniProt P63165); assay: inhibitors of SUMO1 peptide binding, dose response, biochemical, fluorescence polarization, uHTS hits (AID 624382); assay type: functional; details: read-out: IC50_Mean
T2 sequence (P63165 whole entry): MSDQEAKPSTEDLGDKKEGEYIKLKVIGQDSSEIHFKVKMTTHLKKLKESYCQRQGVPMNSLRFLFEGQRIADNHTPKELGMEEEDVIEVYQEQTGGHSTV

[4] = target: Tyrosine-protein phosphatase non-receptor type 11 (Homo sapiens, UniProt Q06124); assay: SHP2 phosphatase inhibition, dose response, selectivity assay for STEP inhibitor project, biochemical (AID 602367); assay type: functional; details: read-out: IC50_Mean
[5] = target: T2, Small ubiquitin-related modifier 1; assay: inhibitors of SUMO1 partner interactions, dose response, biochemical, FRET (AID 624383); assay type: functional; details: read-out: IC50_Mean
[6] = target: Dual specificity protein phosphatase 3 (Homo sapiens, UniProt P51452); assay: VHR phosphatase inhibition, dose response, selectivity assay for STEP inhibitor project, biochemical (AID 602374); assay type: functional; details: read-out: IC50_Mean
Chain of Dual specificity protein phosphatase 3 (P51452 whole entry): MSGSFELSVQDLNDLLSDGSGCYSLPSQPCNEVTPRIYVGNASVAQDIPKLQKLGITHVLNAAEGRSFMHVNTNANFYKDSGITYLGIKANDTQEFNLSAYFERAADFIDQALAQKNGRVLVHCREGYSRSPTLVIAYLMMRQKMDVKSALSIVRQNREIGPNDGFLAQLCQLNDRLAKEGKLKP

[7] = target: T3, DNA repair and recombination protein RAD54-like (Homo sapiens, UniProt Q92698); assay: inhibitors of human RAD54 branch migration, confirmation, biochemical, fluorescence, cherry-picked samples, dose series (AID 651657); assay type: functional
T3 sequence (Q92698 whole entry): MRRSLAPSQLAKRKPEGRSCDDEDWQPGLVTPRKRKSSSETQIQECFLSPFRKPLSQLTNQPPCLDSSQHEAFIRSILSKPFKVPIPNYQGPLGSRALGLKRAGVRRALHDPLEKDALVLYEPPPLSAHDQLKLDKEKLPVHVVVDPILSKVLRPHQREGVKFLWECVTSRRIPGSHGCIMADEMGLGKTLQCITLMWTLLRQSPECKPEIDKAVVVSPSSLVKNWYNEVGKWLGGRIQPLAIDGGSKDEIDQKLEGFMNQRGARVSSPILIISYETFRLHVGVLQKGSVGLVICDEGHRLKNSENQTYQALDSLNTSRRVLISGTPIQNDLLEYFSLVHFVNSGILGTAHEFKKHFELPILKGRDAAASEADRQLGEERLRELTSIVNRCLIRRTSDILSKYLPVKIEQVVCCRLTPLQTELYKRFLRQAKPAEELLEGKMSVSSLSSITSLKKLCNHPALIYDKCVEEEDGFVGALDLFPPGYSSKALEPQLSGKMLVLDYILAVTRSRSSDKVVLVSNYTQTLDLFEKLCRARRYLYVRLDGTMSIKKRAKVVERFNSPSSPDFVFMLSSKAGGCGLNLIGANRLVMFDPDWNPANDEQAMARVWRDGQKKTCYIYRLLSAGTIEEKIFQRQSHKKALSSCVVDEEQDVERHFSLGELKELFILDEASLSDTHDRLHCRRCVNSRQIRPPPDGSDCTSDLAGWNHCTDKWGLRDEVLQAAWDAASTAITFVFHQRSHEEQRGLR

[8] = target: T4, DNA repair protein RAD52 homolog (Homo sapiens, UniProt P43351); assay type: functional, biochemical
T4 sequence (P43351 whole entry): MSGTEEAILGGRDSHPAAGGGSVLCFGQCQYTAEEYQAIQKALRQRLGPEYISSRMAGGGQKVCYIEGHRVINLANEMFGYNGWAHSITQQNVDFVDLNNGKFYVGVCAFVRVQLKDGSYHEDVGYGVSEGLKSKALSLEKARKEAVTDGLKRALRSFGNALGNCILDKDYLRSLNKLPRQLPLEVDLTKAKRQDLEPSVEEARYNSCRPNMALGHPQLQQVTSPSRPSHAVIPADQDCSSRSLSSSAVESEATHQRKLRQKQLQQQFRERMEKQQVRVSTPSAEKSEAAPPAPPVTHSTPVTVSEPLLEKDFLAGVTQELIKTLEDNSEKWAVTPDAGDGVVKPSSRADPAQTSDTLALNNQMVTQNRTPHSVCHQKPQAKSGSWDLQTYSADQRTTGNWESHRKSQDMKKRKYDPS

[9] = MDA-MB-231 cell growth inhibition, dose response, cytotoxicity control for RAD54 inhibitor project, CellTiter-Glo luminescence, cherry-pick (AID 651692); assay type: functional, cell-based
Steroidogenic factor 1 = Steroidogenic factor 1 (Homo sapiens, UniProt Q13285); assay: Counterscreen for inverse agonists of the liver receptor homolog-1 (LRH-1; NR5A2): Luminescence-based cell-based high throughput dose response assay to identify inverse agonists of the Steroidogenic Factor 1 Nuclear Receptor (SF1; NR5A1).; assay type: functional
Chain of Steroidogenic factor 1 (Q13285 whole entry): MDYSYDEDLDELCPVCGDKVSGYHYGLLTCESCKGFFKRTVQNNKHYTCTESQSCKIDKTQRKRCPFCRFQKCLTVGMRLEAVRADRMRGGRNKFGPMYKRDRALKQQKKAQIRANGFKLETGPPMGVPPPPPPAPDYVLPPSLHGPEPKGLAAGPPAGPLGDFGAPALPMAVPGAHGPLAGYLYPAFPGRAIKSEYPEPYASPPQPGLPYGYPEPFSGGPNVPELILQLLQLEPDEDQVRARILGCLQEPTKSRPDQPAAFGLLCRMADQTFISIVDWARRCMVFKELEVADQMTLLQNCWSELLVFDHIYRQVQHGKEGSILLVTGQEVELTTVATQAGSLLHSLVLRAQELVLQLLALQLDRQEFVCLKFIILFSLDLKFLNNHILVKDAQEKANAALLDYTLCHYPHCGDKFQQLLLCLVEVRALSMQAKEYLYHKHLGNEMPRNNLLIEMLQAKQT

[10] = StAR promoter reporter inhibition counter-screen, dose response, counter-screen for LRH-1 inverse agonist project, cell-based, luminescence, luciferase reporter (AID 651969); assay type: functional
[11] = target: Nuclear receptor subfamily 5 group A member 2 (Homo sapiens, UniProt O00482); assay type: functional, cell-based;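 further: HEK293T cells transfected with LRH-1 and a StAR promoter luciferase reporter; potency for inhibitors that lower LRH-1 driven reporter light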
[12] = target: Arf-GAP with SH3 domain, ANK repeat and PH domain-containing protein 1 (Homo sapiens, UniProt Q9ULH1); assay type: functional;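 further: biochemical fluorescence polarization dose–response screen measuring inhibition of ASAP1; ASAP1 GAP domain stimulating GTP hydrolysis by truncated human ARF1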
Chain of Arf-GAP with SH3 domain, ANK repeat and PH domain-containing protein 1 (Q9ULH1 whole entry, the tested form may be a part): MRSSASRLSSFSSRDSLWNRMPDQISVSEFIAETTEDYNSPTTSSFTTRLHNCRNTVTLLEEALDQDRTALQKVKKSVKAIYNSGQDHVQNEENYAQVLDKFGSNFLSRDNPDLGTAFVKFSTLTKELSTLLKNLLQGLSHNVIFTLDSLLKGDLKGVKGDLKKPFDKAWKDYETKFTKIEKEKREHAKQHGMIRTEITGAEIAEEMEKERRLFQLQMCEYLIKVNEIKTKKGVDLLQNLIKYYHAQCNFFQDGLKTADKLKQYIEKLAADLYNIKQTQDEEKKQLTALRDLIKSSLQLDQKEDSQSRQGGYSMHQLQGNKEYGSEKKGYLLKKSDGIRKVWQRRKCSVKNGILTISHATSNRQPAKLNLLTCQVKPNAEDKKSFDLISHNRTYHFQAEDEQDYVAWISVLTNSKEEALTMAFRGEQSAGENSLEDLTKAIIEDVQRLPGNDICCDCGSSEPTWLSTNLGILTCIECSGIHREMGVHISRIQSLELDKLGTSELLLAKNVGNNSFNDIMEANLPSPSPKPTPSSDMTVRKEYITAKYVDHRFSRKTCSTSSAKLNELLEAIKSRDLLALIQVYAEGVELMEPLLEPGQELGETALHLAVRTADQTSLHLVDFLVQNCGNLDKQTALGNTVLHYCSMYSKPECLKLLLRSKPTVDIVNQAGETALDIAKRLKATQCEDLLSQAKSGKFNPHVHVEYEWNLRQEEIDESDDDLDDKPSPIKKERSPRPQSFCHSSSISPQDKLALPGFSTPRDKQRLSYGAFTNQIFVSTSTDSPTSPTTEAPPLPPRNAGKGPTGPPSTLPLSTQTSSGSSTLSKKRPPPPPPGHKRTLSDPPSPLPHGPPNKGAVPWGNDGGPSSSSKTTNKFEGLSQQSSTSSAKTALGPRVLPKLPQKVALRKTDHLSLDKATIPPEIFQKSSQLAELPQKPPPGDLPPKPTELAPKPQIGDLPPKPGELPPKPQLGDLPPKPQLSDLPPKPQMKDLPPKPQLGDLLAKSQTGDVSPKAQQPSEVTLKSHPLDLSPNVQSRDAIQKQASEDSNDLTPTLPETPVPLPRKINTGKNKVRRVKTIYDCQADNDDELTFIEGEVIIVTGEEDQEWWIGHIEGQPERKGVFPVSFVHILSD

[13] = target: ADP-ribosylation factor GTPase-activating protein 1 (Rattus norvegicus, UniProt Q62848); assay: Fluorescence polarization-based biochemical high throughput dose response screening assay to identify inhibitors of ADP-ribosylation factor GTPase activating protein 1 (ARFGAP1).; assay type: functional
[14] = intracellular Trypanosoma cruzi inhibitors in host cells – cell-based, plate reader, cherry-pick samples, set 3, dose response (AID 651818); assay type: functional;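 further: compounds incubated with infected cells for about four days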
[15] = NIH/3T3 fibroblast cytotoxicity, dose response, cytotoxicity control for T. cruzi growth inhibitor project, cell-based, cherry-pick samples, set 2 (AID 651817); assay type: functional; details: NIH3T3
[16] = Luminescence Cell-Based Dose Retest to Confirm Inhibitors of Cancer Stem Cells. [Related pubchem assays (depositor defined):AID2717, AID2721]; assay type: functional; details: Homo sapiens
[17] = target: Photoreceptor-specific nuclear receptor (Homo sapiens, UniProt Q9Y5X4); assay type: functional, cell-based;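 further: CHO-S cells with Gal4-NCOR and VP16-NR2E3 two-hybrid luciferase reporter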
Chain of Photoreceptor-specific nuclear receptor (Q9Y5X4 whole entry, the tested form may be a part): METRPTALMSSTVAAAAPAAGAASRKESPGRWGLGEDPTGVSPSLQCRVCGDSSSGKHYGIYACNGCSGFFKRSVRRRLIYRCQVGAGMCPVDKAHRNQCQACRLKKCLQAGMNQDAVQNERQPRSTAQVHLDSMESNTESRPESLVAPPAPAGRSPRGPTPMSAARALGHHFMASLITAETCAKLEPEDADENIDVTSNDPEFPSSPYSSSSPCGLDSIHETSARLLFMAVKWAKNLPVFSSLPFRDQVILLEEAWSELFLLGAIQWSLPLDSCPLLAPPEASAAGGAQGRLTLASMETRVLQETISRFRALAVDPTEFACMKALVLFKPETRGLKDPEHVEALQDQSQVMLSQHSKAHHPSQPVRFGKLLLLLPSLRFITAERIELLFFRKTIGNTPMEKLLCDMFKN

[18] = target: 5-hydroxytryptamine receptor 2A (Mus musculus, UniProt P35363); assay type: functional, cell-based;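 further: CHO-K1 cells with tagged receptor and beta-arrestin; agonist potency measured as compound-induced activation of the receptor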
Chain of 5-hydroxytryptamine receptor 2A (P35363 whole entry): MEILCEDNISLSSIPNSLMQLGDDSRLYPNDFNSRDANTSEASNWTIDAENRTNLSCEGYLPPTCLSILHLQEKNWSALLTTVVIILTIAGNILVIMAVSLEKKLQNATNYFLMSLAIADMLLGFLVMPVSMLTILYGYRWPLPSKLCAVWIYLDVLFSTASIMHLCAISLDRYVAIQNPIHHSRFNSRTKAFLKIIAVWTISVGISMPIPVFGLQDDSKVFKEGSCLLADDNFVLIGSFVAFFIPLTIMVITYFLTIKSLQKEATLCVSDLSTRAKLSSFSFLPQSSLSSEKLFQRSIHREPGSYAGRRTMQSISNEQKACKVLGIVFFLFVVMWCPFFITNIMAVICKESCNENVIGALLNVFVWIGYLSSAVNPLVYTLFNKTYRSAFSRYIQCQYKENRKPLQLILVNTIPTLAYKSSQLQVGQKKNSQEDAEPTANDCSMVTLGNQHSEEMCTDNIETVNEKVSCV

Mu-type opioid receptor = Mu-type opioid receptor (Homo sapiens, UniProt P35372); assay type: functional, cell-based;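 further: U2OS cells with beta-arrestin recruitment to OPRM1 by beta-gal complementation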
Chain of Mu-type opioid receptor (P35372 whole entry): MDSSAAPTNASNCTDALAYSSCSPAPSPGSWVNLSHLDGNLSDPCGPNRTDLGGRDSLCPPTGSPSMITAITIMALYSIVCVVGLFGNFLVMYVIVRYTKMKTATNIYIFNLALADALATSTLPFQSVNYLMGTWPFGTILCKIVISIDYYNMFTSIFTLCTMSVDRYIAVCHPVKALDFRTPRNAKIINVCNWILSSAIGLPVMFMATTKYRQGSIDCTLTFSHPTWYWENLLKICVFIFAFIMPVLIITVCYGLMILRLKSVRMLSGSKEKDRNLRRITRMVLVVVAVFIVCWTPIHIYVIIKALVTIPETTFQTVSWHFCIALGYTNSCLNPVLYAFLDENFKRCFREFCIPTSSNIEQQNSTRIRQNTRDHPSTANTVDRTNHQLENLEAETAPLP

Beta-lactamase [19] = target: T5, Beta-lactamase (Pseudomonas aeruginosa, UniProt Q79MP6); assay: […] counterscreen for selective VIM-2 inhibitors: dose response biochemical high throughput screening assay to identify inhibitors of IMP-1 metallo-beta-lactamase.
T5 sequence (Q79MP6 whole entry): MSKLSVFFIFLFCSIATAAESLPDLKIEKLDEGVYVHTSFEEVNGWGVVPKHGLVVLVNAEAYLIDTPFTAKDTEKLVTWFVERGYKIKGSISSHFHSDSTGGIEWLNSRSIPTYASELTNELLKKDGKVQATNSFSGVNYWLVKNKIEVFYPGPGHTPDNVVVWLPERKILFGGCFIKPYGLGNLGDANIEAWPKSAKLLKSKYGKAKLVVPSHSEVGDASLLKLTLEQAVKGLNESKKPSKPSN

Beta-lactamase [20] = target: Beta-lactamase (Salmonella choleraesuis (strain SC-B67), UniProt Q5J463); assay: Epi-absorbance-based counterscreen for selective VIM-2 inhibitors: dose response biochemical high throughput screening assay to identify inhibitors of TEM-1 serine-beta-lactamase.
Chain of Beta-lactamase (Salmonella choleraesuis (strain SC-B67), UniProt Q5J463) (Q5J463 whole entry): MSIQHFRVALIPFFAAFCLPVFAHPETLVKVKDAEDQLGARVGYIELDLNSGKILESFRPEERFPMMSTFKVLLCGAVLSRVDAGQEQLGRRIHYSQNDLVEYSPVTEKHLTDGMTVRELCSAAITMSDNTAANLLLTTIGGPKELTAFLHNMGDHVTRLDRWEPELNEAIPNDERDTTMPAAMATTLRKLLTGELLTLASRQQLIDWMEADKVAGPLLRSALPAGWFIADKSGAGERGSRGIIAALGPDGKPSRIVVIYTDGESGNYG

Beta-lactamase [21] = target: T5, Beta-lactamase; assay: IMP-1 metallo-beta-lactamase inhibitors, dose response, selectivity assay for VIM-2 inhibitor project, biochemical, epi-absorbance (AID 1920)
[22] = growth suppression of beta-catenin-knockout colon cells, dose response, cell-based, HCT116, human colon tumor (AID 1045); assay type: functional;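 further: HCT116 colon tumor cells with beta catenin knocked out; cells exposed to compound for 60 hours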
INS1 = assay: beta cell apoptosis inhibitors, cytokine rescue, dose response, luminescence, retest (AID 449756); assay type: functional, cell-based; details: Rattus norvegicus;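 further: cell death triggered by IL-1 beta plus TNF-alpha plus IFN-gamma mixture; protective hits raise ATP signal compared with cytokine alone wells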
[23] = growth suppression of PTEN-null colon cells, dose response, cell-based, HCT116 PTEN knockout (AID 1047); assay type: functional;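 further: HCT116 colon tumor cells with PTEN knocked out; cells exposed to compound for 60 hours before readout; potency for loss of cell viability measured by luminescence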
Cytochrome P450 1A2 = target: T6, Cytochrome P450 1A2 (Homo sapiens, UniProt P05177);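 further: PubChem cytochrome P450 panel assay, CYP1A2 panel member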
T6 sequence (P05177 whole entry): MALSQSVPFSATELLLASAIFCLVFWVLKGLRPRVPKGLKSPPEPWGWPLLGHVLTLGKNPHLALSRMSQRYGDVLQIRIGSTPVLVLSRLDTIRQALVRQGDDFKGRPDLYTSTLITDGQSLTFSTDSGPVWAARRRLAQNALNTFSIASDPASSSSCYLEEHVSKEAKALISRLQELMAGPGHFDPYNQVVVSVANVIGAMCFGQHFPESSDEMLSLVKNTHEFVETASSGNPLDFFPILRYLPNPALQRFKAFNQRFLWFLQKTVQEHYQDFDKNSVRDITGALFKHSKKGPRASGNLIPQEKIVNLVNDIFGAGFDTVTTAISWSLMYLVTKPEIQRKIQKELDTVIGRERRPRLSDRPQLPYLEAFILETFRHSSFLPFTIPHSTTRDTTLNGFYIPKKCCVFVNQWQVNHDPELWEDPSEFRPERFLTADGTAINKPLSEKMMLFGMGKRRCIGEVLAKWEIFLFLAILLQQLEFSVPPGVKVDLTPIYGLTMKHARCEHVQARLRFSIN

Cytochrome P450 2C9 = Cytochrome P450 2C9 (Homo sapiens, UniProt P11712)
Chain of Cytochrome P450 2C9 (P11712 whole entry): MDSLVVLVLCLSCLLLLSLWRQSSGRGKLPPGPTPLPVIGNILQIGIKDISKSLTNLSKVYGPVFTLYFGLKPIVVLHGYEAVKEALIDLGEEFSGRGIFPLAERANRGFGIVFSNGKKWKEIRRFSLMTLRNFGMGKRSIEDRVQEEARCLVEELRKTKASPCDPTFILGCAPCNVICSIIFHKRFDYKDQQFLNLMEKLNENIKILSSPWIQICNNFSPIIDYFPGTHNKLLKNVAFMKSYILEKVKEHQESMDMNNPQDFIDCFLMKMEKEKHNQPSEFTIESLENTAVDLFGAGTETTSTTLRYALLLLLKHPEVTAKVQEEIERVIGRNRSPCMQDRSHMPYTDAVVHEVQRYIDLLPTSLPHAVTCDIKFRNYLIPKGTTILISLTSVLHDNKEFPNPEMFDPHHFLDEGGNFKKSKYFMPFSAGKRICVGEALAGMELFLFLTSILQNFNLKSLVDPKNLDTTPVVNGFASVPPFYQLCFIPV

[24] = target: T7, Alkaline phosphatase, tissue-nonspecific isozyme (Homo sapiens, UniProt P05186); assay: TNAP enzyme inhibition by screening hits, dose response, selectivity assay for mouse IAP inhibitor project, biochemical, human TNAP, uHTS hits (AID 488906); assay type: functional
T7 sequence (P05186 whole entry): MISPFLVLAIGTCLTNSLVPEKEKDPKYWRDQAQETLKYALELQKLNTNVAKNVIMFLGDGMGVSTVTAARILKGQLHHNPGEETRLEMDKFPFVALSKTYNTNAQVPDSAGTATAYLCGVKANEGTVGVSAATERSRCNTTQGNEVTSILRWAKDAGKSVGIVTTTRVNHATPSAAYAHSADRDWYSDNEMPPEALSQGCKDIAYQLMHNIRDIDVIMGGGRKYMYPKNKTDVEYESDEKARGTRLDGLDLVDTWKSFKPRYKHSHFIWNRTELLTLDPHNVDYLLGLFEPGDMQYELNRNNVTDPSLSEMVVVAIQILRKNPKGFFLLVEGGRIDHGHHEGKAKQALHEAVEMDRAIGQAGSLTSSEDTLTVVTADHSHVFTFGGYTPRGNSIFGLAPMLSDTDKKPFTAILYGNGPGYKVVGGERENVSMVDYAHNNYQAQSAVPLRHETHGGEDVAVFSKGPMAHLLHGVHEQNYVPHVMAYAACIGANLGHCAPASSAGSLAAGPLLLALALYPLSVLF

[25] = target: Intestinal-type alkaline phosphatase (Homo sapiens, UniProt P09923); assay: inhibition of human intestinal alkaline phosphatase – biochemical, dose response (AID 488876); assay type: functional
[26] = target: Intestinal-type alkaline phosphatase (Mus musculus, UniProt P24822); assay: PubChem AID 488785; assay type: functional
Chain of Intestinal-type alkaline phosphatase (Mus musculus, UniProt P24822) (P24822 whole entry, the tested form may be a part): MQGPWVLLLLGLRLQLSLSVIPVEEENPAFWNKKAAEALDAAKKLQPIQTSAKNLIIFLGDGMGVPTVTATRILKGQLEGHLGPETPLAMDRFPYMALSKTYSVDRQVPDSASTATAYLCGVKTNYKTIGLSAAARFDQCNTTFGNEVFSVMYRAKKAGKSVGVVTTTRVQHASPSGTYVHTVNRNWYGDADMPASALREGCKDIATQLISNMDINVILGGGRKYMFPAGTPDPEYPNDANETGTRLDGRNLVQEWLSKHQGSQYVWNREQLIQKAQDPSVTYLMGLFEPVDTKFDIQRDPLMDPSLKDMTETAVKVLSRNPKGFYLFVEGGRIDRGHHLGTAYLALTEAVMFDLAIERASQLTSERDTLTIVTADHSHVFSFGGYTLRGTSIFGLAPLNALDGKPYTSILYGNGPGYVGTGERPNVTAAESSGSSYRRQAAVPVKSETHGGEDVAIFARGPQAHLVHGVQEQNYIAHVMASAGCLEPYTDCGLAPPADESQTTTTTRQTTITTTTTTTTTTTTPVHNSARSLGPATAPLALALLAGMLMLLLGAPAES

[27] = target: Hepatocyte nuclear factor 4-alpha (Homo sapiens, UniProt P41235); assay type: functional, cell-based;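 further: biochemical luminescence-based dose-response counterscreen measuring inhibition of HNF4 dimerization, run alongside a screen for blockers of ABHD5–perilipin-5 interaction; split luciferase complementation of HNF4 fusion proteins in cell lysate measuring dimerization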

CC1=C(C(=O)OC(C)C)C(c2ccc(Cl)cc2)n2c(s/c(=C\c3ccc(OCC(=O)O)cc3)c2=O)=N1 (centres undefined)
IC50 [1]: 14.7 µM (active)
IC50 [2]: 4.68 µM (active)
IC50 [3]: > 66.6 µM (inactive)
IC50 [4]: 3.24 µM (active)
IC50 [5]: 7.22 µM (active)
IC50 [6]: 3.02 µM (active)

COc1ccc(-c2oc3ncnc(NCCCN(C)C)c3c2-c2ccc(OC)cc2)cc1
AC50 [7]: 21.7 µM (active)
AC50 [8]: 3.48 µM (active)
AC50 [9]: 12.9 µM (active)

CCOc1ccc(NC(=O)COC(=O)c2ccc3c(c2)OCCO3)cc1
IC50 (Steroidogenic factor 1): 1.01 µM (active)
IC50 [10]: 35.9 µM (inactive)
IC50 [11]: 12.9 µM (inactive)

COC(=O)Cn1cc(/C=N/NC(=O)COc2cccc3cccnc23)c2ccccc21
IC50 [12]: 116 µM (inactive)
IC50 [13]: 119 µM (inactive)

COc1ccc(CN(C)C[C@@H]2Oc3c(NC(=O)Nc4ccc(C(F)(F)F)cc4)cccc3C(=O)N([C@H](C)CO)C[C@H]2C)cc1
AC50 [14]: 1.8 µM (active)
AC50 [15]: 11.3 µM (active)

CCc1ccccc1Nc1nn2c(=O)c3ccc(C(=O)NCc4ccccn4)cc3nc2s1
AC50 [16]: 0.343 µM (active)
IC50 [17]: 13.1 µM (inactive)
IC50 [3]: > 66.6 µM (inactive)
IC50 [5]: 10.4 µM (active)

Cc1ccccc1C(=O)O/N=C(\c1ccccc1)c1ccccn1
EC50 [18]: 20.2 µM (inactive)
EC50 (Mu-type opioid receptor): 92.5 µM (inactive)

CCCCc1cc(=O)oc2c3c(cc(OCC(=O)N4CCC[C@H]4C(=O)O)c12)OC(C)(C)CC3
IC50 (Beta-lactamase [19]): > 59.6 µM (inactive)
IC50 (Beta-lactamase [20]): > 59.6 µM (inactive)
IC50 (Beta-lactamase [21]): > 59.6 µM (inactive)

CCOc1cc(/C=C2\CCC/C(=C\c3cc(Cl)c(O)c(OCC)c3)C2=O)cc(Cl)c1O
EC50 [22]: 2.23 µM (active)
AC50 (INS1): 8.02 µM (active)
EC50 [23]: 2.24 µM (active)
AC50 (Cytochrome P450 1A2): 10 µM (inconclusive)
AC50 (Cytochrome P450 2C9): inconclusive
IC50 [24]: > 100 µM (inactive)
IC50 [25]: > 100 µM (inactive)
IC50 [26]: 7.08 µM (active)
IC50 [27]: 6.46 µM (active)
